Reference: US6084120A, “β-Alkoxyacrylates against malaria” (Hoffmann-La Roche Inc., priority 1997, dated 2000)
≈ marks a conversion by molar mass, not a printed value. Where two headings read alike, the source gives them in different places.

What was measured:
[1] = test system: human-pathogenic Plasmodium falciparum strain NF54; assay: Growth inhibition of Plasmodium falciparum in vitro, strain NF54 (chloroquine-sensitive), [G-3H]-hypoxanthin incorporation; type: cell-based; conditions: 72 h, read-out: in vitro strain NF 54 IC50 (growth inhibition) (converted)
Protocol: (§1) Test method for the determination of the activity against Plasmodium falciparum in vitro
(§2) The preparations are tested on intraerythrocytary stages of Plasmodium falciparum from asynchronous cultures according to the method of Desjardin et al. (Desjardins, R. E. et al: Quantitative assessment of antimalarial activity in vitro by a semiautomated microdilution technique. Antimicrob. Agents Chemother. 16, 710-718, (1979)).
(§3) The culture medium consists of RPMI 1640 with the addition of 25 mM HEPES, 25 mM NaHCO3, 100 μg/ml neomycin and 10% human serum (A^+). Human-A^+ erythrocytes are used as the Plasmodium falciparum host cells. The parasites are maintained at 37° C. in an atmosphere of 3% O2, 4% CO2, 93% N2 and 95% relative humidity.
(§4) In order to determine the activity, the preparations are dissolved in DMSO, pre-diluted in the culture medium to a suitable starting concentration and subsequently titrated-out on to microtitre plates in the 2nd stage over 6-7 steps. After the addition of the parasite culture (0.7% parasitemia in 2.5% erythrocyte suspension) the test plates are incubated under the conditions given above for 72 h. The parasite growth in the different preparation concentrations is determined using [G-^3 H]-hypoxanthin incorporation compared to untreated control cultures on the same test plates. The 50% growth inhibition (IC50) is calculated according to logit regression analysis from the resulting dosage-activity curve.
(§5) The preparations are tested on at least one chloroquine-resistant and one chloroquine-sensitive Plasmodium falciparum strain. Additional sensitive and resistant strains are included for further characterization.

[2] = test system: human-pathogenic Plasmodium falciparum K1; assay: Growth inhibition of Plasmodium falciparum in vitro, strain K1 (chloroquine-resistant), [G-3H]-hypoxanthin incorporation; type: cell-based; conditions: 72 h
Protocol: as §1, §2, §3, §4, §5

[3] = test system: Plasmodium berghei (strain ANKA); assay: Activity against Plasmodium berghei in vivo, reduction of parasitemia in infected mice; conditions: for inhibition in vivo at 100 mg/kg / inhibition in vivo at 10 mg/kg: Plasmodium berghei, 48 h after treatment; for inhibition in vivo at 100 mg/kg / in vivo sc act. % (toxic): single dose 100 mg/kg; for inhibition in vivo at 10 mg/kg: single dose 10 mg/kg
Protocol: Test method for the determination of the activity against Plasmodium berghei in vivo
The preparations are tested on mice infected with malaria pathogens (Plasmodium berghei). Male albino mice (IBM:MORO(SPF), FUELLINSDORF) weighing about 25 g are used as the test animals. They are kept in climatized rooms at 21-22° C. in groups of 5 animals per cage. They receive ad libitum a diet feed with a low PABA content (NAFAG FUTTER" No. 9009 PAB-45, PABA content 45 mg/kg) and drinking water. On the first day of the test (D0) the test animals are infected with Plasmodium berghei (strain ANKA). For this there is used heparinized blood of a donor mouse with about 30% parasitemia, which is diluted with physiological saline such that it contains 10^8 parasitized erythrocytes per ml. 0.2 ml of this suspension is injected intravenously (i.v.) into the mice to be treated and into the control mice. In untreated control animals the parasitemia normally reaches 30-40% on the third day after the infection (D+3) and the test animals die between days +5 and +7.
The substances to be tested are dissolved or suspended in distilled water or in a mixture of 7% Tween 80, 3% alcohol (96%) and water. Usually, 0.25 ml of this solution or suspension is administered once subcutaneously and perorally to groups of 5 test animals. Treatment is effected 24 hours after the infection. 10 control animals are treated in the same manner with solvent or suspension medium per test.
All substances are tested in a first test in a single dosage of 100 or 10 mg/kg. Only those substances which in this test (10 mg/kg) have shown a parasitaemia reduction of more than 90% are used for the titration. Suitable dilutions of the test substance can be used to obtain an accurate titration of the activity.
48 hours after the treatment (D+3) blood smears are prepared from all animals using blood from tail veins and are stained with giemsa. The average erythrocyte infection rate (parasitemiea in %) in the control groups as well as in the groups which have been treated with the test compounds is determined by counting under a microscope. The difference in the average values of the infection rates of control group (100%) and treated groups is calculated and expressed as a percentage reduction (GI%). The ED50 or ED90 is determined mathematically by means of the JMP programme (nonlinear fit). The ED50 (ED90) in mg/kg is that dose which after single administration reduces the average erythrocyte infection rate by 50% (90%) in comparison to the control group.

[4] = po, perorally, read-out: in vivo po act. % (percentage reduction of the parasitemia)
[5] = sc, subcutaneously, read-out: in vivo sc act. % (percentage reduction of the parasitemia)

| Compound | IC50 [1] | IC50 [2] | inhibition in vivo at 100 mg/kg [3, 4] | in vivo sc act. % (toxic) ([3]; subcutaneously) | inhibition in vivo at 100 mg/kg [3, 5] | inhibition in vivo at 10 mg/kg [3, 4] |
| --- | --- | --- | --- | --- | --- | --- |
| CO/C=C(/C(=O)OC)c1ccccc1CSc1c(F)c(F)c(F)c(F)c1F [Example 11] | 1.17 µg/mL (≈ 2.89 µM) | 4.9 µg/mL (≈ 12.1 µM) | 80% | tox |  |  |
| CO/C=C(/C(=O)OC)c1ccccc1COc1cnc2cc(Br)cc(C)c2n1 [Example 28] | 17.7 µg/mL (≈ 39.9 µM) | 19.1 µg/mL (≈ 43.1 µM) |  |  |  |  |
| CO/C=C(/C(=O)OC)c1ccccc1CO/N=C(\C)c1cc(C(F)(F)F)cc(C(F)(F)F)c1 [Example 105] | 0.21 µg/mL (≈ 0.442 µM) | 1.01 µg/mL (≈ 2.12 µM) |  |  |  |  |
| CO/N=C(/C(=O)OC)c1ccccc1CO/N=C(\C)c1cccc(C(F)(F)F)c1 [Example 110] | 20 µg/mL (≈ 49 µM) | 65.8 µg/mL (≈ 161 µM) |  |  |  |  |
| CO/N=C(/C(=O)OC)c1ccccc1CO/N=C(\C)c1cc(C(F)(F)F)cc(C(F)(F)F)c1 [Example 111] | 1.6 µg/mL (≈ 3.36 µM) | 4.3 µg/mL (≈ 9.03 µM) |  |  |  |  |
| CO/C=C(/C(=O)OC)c1ccccc1/C=C/CSc1ccccc1C(F)(F)F [Example 120] | 1.75 µg/mL (≈ 4.28 µM) | 2.51 µg/mL (≈ 6.15 µM) | 46% |  | 91% |  |
| CO/C=C(/C(=O)OC)c1ccccc1/C=C/c1cc(OC)c(OC)cc1[N+](=O)[O-] [Example 126] | 1.2 µg/mL (≈ 3 µM) | 3.3 µg/mL (≈ 8.26 µM) | 79% |  | 76% |  |
| CO/C=C(/C(=O)OC)c1ccccc1/C=C/c1ccc(OC)c(OC)c1Cl [Example 136] | 1.04 µg/mL (≈ 2.67 µM) | 2.9 µg/mL (≈ 7.46 µM) | 40% | tox |  |  |
| CO/C=C(/C(=O)OC)c1ccccc1/C=C/C=C/c1ccccc1C(F)(F)F [Example 185, Methyl (E)-3-methoxy-2-[o-[(all-E)-4-(alpha,alpha,alpha-trifluoro-tolyl)-1,3-butadienyl]-phenl]acrylate] | 0.06 µg/mL (≈ 0.154 µM) | 0.15 µg/mL (≈ 0.386 µM) |  |  | 100% | 99% |
| COC=C(C(=O)OC)c1ccccc1C=CC=Cc1ccc(C(F)(F)F)cc1C(F)(F)F [Example 199, (E)- or (Z)-2-[2-[4-(2,4-bis-trifluoromethyl-phenyl)-buta-1,3-dienyl]phenyl]-3-methoxy-acrylic acid methyl ester] | 0.06 µg/mL (≈ 0.131 µM) | 0.13 µg/mL (≈ 0.285 µM) |  |  | 100% | 100% |
| CO/C=C(/C(=O)OC)c1ccccc1/C=C/C=C/c1ccccc1Br [Example 203, Methyl (E)-2-[o-[(all-E)-4-(o-bromophenyl)-1,3-butadienyl]phenyl]-3-methoxyacrylate] | 0.07 µg/mL (≈ 0.175 µM) | 0.28 µg/mL (≈ 0.701 µM) |  |  | 90% | 76% |
| CON=C(C(=O)OC)c1ccccc1/C=C/C=C/c1ccccc1C(F)(F)F [Example 206, (Z)- or (E)-Methoxyimino-[2-[(1E,2E)-4-(2-trifluoromethylphenyl)-buta-1,3-dienyl]-phenyl]-acetic acid methyl ester] | 0.4 µg/mL (≈ 1.03 µM) | 1.4 µg/mL (≈ 3.6 µM) | 46% |  | 44% |  |
| CO/N=C(/C(=O)OC)c1ccccc1C#CC#Cc1ccccc1C(F)(F)F [Example 207] | 10.8 µg/mL (≈ 28 µM) | 25.8 µg/mL (≈ 67 µM) |  |  |  |  |
| CO/N=C(/C(=O)OC)c1ccccc1C#C/C=C/c1ccccc1C(F)(F)F [Example 209] | 3.21 µg/mL (≈ 8.29 µM) | 5.7 µg/mL (≈ 14.7 µM) |  |  |  |  |
| CO/C=C(/C(=O)OC)c1ccccc1CCCCc1ccccc1C(F)(F)F [Example 210] | 0.85 µg/mL (≈ 2.17 µM) | 1.35 µg/mL (≈ 3.44 µM) | 82% |  | 99% |  |
| CO/C=C(/C(=O)OC)c1ccccc1CCCCc1ccc(C(F)(F)F)cc1C(F)(F)F [Example 211] | 0.33 µg/mL (≈ 0.717 µM) | 1.34 µg/mL (≈ 2.91 µM) |  |  | 92% | 59% |
| CO/N=C(/C(=O)OC)c1ccccc1-c1ccc(-c2ccccc2C(F)(F)F)s1 [Example 217] | 23.7 µg/mL (≈ 56.5 µM) | 60.8 µg/mL (≈ 145 µM) |  |  |  |  |
| CO/C=C(/C(=O)OC)c1csc2cccc(CN(C)[C@@H](C)c3ccccc3)c12 [Example 222] | 22.6 µg/mL (≈ 57.1 µM) | 64.3 µg/mL (≈ 163 µM) |  |  |  |  |
| CO/C=C(/C(=O)OC)c1csc2cccc(COC(=O)Cc3ccc(Cl)cc3Cl)c12 [Example 233] | 29.5 µg/mL (≈ 63.4 µM) | 67.3 µg/mL (≈ 145 µM) |  |  |  |  |
| CO/C=C(/C(=O)OC)c1csc2cccc(COC(=O)/C=C/c3cccc(C(F)(F)F)c3)c12 [Example 236] | 44.2 µg/mL (≈ 92.8 µM) | 175 µg/mL (≈ 367 µM) |  |  |  |  |
| CO/C=C(/C(=O)OC)c1csc2cccc(CO/N=C(\C)c3cccc(C(F)(F)F)c3)c12 [Example 238] | 17.5 µg/mL (≈ 37.8 µM) | 40.9 µg/mL (≈ 88.2 µM) |  |  |  |  |
| CO/C=C(/C(=O)OC)c1csc2cccc(/C=C/c3ccccc3)c12 [Example 241] | 1.4 µg/mL (≈ 3.99 µM) | 7.4 µg/mL (≈ 21.1 µM) |  |  |  |  |
| CO/C=C(/C(=O)OC)c1csc2cccc(/C=C/c3ccsc3)c12 [Example 243] | 6.7 µg/mL (≈ 18.8 µM) | 22.6 µg/mL (≈ 63.4 µM) |  |  |  |  |
| CO/C=C(/C(=O)OC)c1csc2c(C)cccc12 [Example 250] | 184 µg/mL (≈ 703 µM) | 550 µg/mL (≈ 2100 µM) |  |  |  |  |
| CO/C=C(/C(=O)OC)c1ccccc1/C=C/COC1CCCCO1 [Example 251, (E)-3-Methoxy-2-{(E)-2-[(R)- and (S)-3-(tetrahydro-pyran-2-yloxy}-propenyl]-phenyl}-acrylic acid methyl ester] | 64.9 µg/mL (≈ 195 µM) | 111 µg/mL (≈ 334 µM) | 40% |  | 74% |  |
